Test results taken from patent US20220242812A1, “SWELL1-LRRC8 COMPLEX MODULATORS” (Washington University, priority 2019, published 2022).
Like-named read-outs stand apart in the source and are kept apart here.

Assays:
SWELL1 protein [1] = target: T1, SWELL1 protein (Mus musculus, UniProt Q80WG5); details: for SWELL1 protein expression: applied for 96 hours (10 μM)
polygenic T2D KKAy mice = experiment: Metabolic phenotyping (fasting glucose, GTT, ITT) in polygenic T2D KKAy mice; assay type: in vivo; details: polygenic T2D KKAy model, 5 mg/kg i.p. 4 days
Description: All C57BL/6 mice involved in study were purchased from Charles River Labs. Both KK.Cg-Ay/J (KKN) and KK.Cg-Aa/J (KKAa) mice involved in study were gender and age-matched mice obtained from Jackson Labs (Stock No: 002468) and bred up for experiments. The mice were fed ad libitum with either regular chow (RC) or high-fat diet (Research Diets, Inc., 60 kcal % fat) with free access to water and housed in a light-, temperature- and humidity-controlled room. For high-fat diet (HFD) studies, only male mice were used and were started on HFD regimen at the age of 6-9 weeks. For all experiments involving KKN and KKAa mice, both males and females were used at approximately 50/50 ratio. In all experiments involving mice, investigators were kept blinded both during the experiments and subsequent analysis.
(§1) All compounds were dissolved in Kolliphor® EL (Sigma, #C5135).
Mice were fasted for 6 h prior to glucose tolerance tests (GTT). Baseline glucose levels at 0 min timepoint (fasting glucose, FG) were measured from blood sample collected from tail snipping using glucometer (Bayer Healthcare LLC). Either 1 g or 0.75 g D-Glucose/kg body weight were injected (i.p.) for lean or HFD mice, respectively and glucose levels were measured at 7, 15, 30, 60, 90 and 120 min timepoints after injection. For insulin tolerance tests (ITTs), the mice were fasted for 4 h. Similar to GTTs, the baseline blood glucose levels were measured at 0 min timepoint and 15, 30, 60, 90 and 120 min timepoints post-injection (i.p.) of insulin (HumulinR, 1 U/kg body weight for lean mice or 1.25 U/kg body weight for HFD mice). […] The collected plasma was then measured for insulin content by using Ultra-Sensitive Mouse Insulin ELISA Kit (Crystal Chem, #90080). All mice and treatment groups were assessed blindly while performing experiments.

HFD-T2D mice, NAFLD = experiment: Liver mass, triglycerides and NAFLD histology in HFD mice; assay type: in vivo; details: vs vehicle
Method: Gross liver weights were measured and identical sections from right medial lobe of liver were dissected for further examinations. Total triglyceride content was determined by homogenizing 10-50 mg of tissue in 1.5 ml of chloroform:methanol (2:1 v/v) and centrifuged at 12000 rpm for 10 mins at 4° C. An aliquot, 20 ul, was evaporated in a 1.5 ml microcentrifuge tube for 30 mins. Triglyceride content was determined by adding 100 μl of Infinity Triglyceride Reagent (Fisher Scientific) to the dried sample followed by 30 min incubation at RT. The samples were then transferred to a 96 well plate along with standards (0-2000 mg/di) and absorbance was measured at 540 nm and the final concentration was determined by normalizing to tissue weight. For histological examination, liver sections were fixed in 10% zinc formalin and paraffin embedded for sectioning. Hematoxylin and eosin (H&E) stained sections were then assessed for steatosis grade, lobular inflammation and hepatocyte ballooning for non-alcoholic fatty liver disease (NAFLD) scoring as described (Kleiner et al., 2005; Liang et al., 2014; Rauckhorst et al., 2017).
Nonalcoholic fatty liver disease (NAFLD), like T2D, is associated with insulin resistance. NASH is an advanced form of nonalcoholic liver disease defined by three histological features: hepatic steatosis, hepatic lobular inflammation, hepatocyte damage (ballooning) and can be present without or without fibrosis. NAFLD and T2D likely share at least some pathophysiologic mechanisms because more than one-third of patients (37%) with T2D have NASH and almost one-half of patients with NASH (44%) have T2D. […] This improved metabolic state can reduce ectopic lipid deposition and NAFLD that is associated with obesity and T2D.

SWELL1 protein [2] = target: T1, SWELL1 protein; experiment: SWELL1 protein expression in adipose tissue of treated T2D mice; assay type: in vivo; design: western blots detecting SWELL1 protein in visceral fat of C57BL/6 mice on high-fat diet; from tissue; host or cells: visceral / inguinal adipose tissue of C57BL/6 HFD and KKAy mice; details: 5 mg/kg i.p.
Method: as §1
(SEQ ID NO: 13) (Pacific Antibodies).

R103E mutant SWELL1 = target: T2, R103E mutant SWELL1 (Homo sapiens, UniProt Q8IWT6, R103E); experiment: ICl,SWELL inhibition in R103E mutant SWELL1 overexpressing HEK-293 cells; assay type: cell-based; details: R103E expressing HEK cells, 10 and 7 μM
T2 construct: expressed in transfected cells; host or cells: HEK-293

[3] = HFD 16 weeks then intermittent dosing over 5 weeks

| ICl,SWELL inhibition in R103E mutant vs WT (R103E mutant SWELL1) | Compound | EC50 (SWELL1 protein [1]) | SWELL1 protein expression (SWELL1 protein [1]; 3T3-F442A adipocytes) | SWELL1 protein expression (SWELL1 protein [1]; 3T3-F442A preadipocytes) | Fasting blood glucose (FG) (polygenic T2D KKAy mice) | Glucose tolerance (GTT) (polygenic T2D KKAy mice) | Insulin-tolerance (ITT) (polygenic T2D KKAy mice) | Absolute and body mass-normalized liver mass (HFD-T2D mice, NAFLD; [3]) | Hepatic triglyceride concentration (HFD-T2D mice, NAFLD; [3]) | Hepatic steatosis (histologic evaluation) (HFD-T2D mice, NAFLD; HFD mice) | Hepatocyte damage (histologic evaluation) (HFD-T2D mice, NAFLD; HFD mice) | Improvement of NAFLD activity score (NAS) (HFD-T2D mice, NAFLD; HFD mice) | SWELL1 expression in adipose tissue (SWELL1 protein [2]; HFD-fed T2D mice) | SWELL1 expression in adipose tissue (SWELL1 protein [2]; T2D KKAy mice, compared to non-T2D C57/B6 and KKAa) |
| --- | --- | --- | --- | --- | --- | --- | --- | --- | --- | --- | --- | --- | --- | --- |
|  | CCCCC1(C2CCCC2)Cc2cc(OCCCC(=O)O)c(Cl)c(Cl)c2C1=O (centres unmarked) [SN-401, 4-((2-butyl-6,7-dichloro-2-cyclopentyl-1-oxo-2,3-dihydro-1H-inden-5-yl)oxy)butanoic acid] | < 1000 nM | 1.5 fold control expression | 3 fold control expression | normalized | normalized | markedly improved | reduced | lower | significantly reduced | significantly reduced | > 2 points | 2.3 fold | increases |
| reduced | CCCCC1(C2CCCC2)Cc2cc(OCCCCCC(=O)O)c(Cl)c(Cl)c2C1=O (centres unmarked) [SN-406, 6-((2-butyl-6,7-dichloro-2-cyclopentyl-1-oxo-2,3-dihydro-1H-inden-5-yl)oxy)hexanoic acid] |  |  |  |  |  |  |  |  |  |  |  |  |  |
